From patent EP0363230A2, “Use of acetogenins in therapy as antiparasitic substances” (LA[…] Société anonyme dite:, priority 1988, dated 1990)

How the values were obtained:
[1] = system: Leishmania donovani, promastigote; assay: Anti-Leishmania effect in vitro (growth inhibition of promastigotes, cell count); type: cell-based; details: for inhibition (I%): growth inhibition of Leishmania donovani promastigotes; for DI-50: dose of 50 % inhibition, 26°C; for DI-50 / DImax: Leishmania donovani LRC L52 promastigotes, 3 to 4 days; for DImax: dose of maximal measured inhibition
Description: (§1) La toxicité a été évaluée par la mesure de la cytotoxicité et de la cytostase vis-à-vis de cellules KB selon une technique usuelle. L'activité antiparasitaire a été déterminée in vitro sur Leishmania donovani, promastigote selon un protocole opératoire décrit ci-après.
On fait appel à une souche de Lieshmania donovani LRC L52 (de la collection OMS).
(§2) Le milieu de culture utilisé avait la composition suivante
L'ensemencement se fait dans des boîtes de 24 cupules contenant chacune 500 µl de milieu. Le milieu est ensemencé par 500 000 promastigotes par cupule puis placé dans une étuve à CO₂ à 26°C pendant 3 à 4 heures.
Le produit à tester est ajouté en solution dans le DMSO à des concentrations variables sous un volume de 25 µl par cupule. Les boîtes ensemencées et traitées par le produit sont laissées à l'étuve pendant 3 à 4 jours.
La mesure de l'activité est effectuée par comptage des cellules à l'hémocytomètre, le nombre obtenu étant rapporté à un témoin dépourvu de produit (100 % de cellules, soit 0 % d'inhibition de croissance). Chaque manipulation est effectuée 2 fois.
Les résultats obtenus sont également consignés dans le tableau I ci-après où sont données les doses d'inhibition à 50 % (DI-50) et les doses d'inhibition maximale mesurées (DImax).

cellules KB [2] = assay: Cytostatic effect on KB cells (crystal violet, optical density at 590 nm); type: cell-based, humain; details: 3 days at 37°C, optical density at 590 nm versus control, ***/** = statistical significance
Text: as §1
(§3) On fait appel à des cellules épithéliales KB provenant d'un carcinome oral épidermoïde humain obtenues selon H. EAGLE "Propagation in a fluid medium of a human epidermoid carcinoma strain KB (21811)", Proc. Soc. Exp. Biol. and Med., 89, pages 362-364, (1955) et commercialisées par la Société dite EUROBIO.
as §2
(§4) L'ensemencement se fait en boîte de 12 cupules contenant chacune 2 ml du milieu. Le produit à tester est mis en solution dans le diméthylsulfoxyde (DMSO) et dilué par du milieu de culture. La solution ainsi obtenue est ajoutée au milieu de culture pour obtenir des concentrations en produit à tester de 5, 10, 20, 30, 40, et […] par ml de milieu. Les cellules sont ajoutées en même temps que la solution du produit à tester.
(§5) Le milieu ensemencé et ainsi traité est mis à l'étuve à 37°C pendant 3 jours. Après fixation des cellules par la méthode dite au cristal violet [selon la technique de R.J. GILLIER et al., "Determination of cell number in monolayer cultures", Analytical Biochemistry 159, pages 109-113, (1986)]. […]

cellules KB [3] = assay: Cytotoxic effect on KB cells (dose lethal for 100 % of cells); type: cell-based, humain; details: 3 days at 37°C, dose lethal for 100 % of cells (complete disappearance of the cell layer)
Text: as §1, §3, §2, §4, §5

SMILES | inhibition (I%) ([1]; DI = 10 µg.ml) | DI-50 [1] | DImax [1] | Cytostase (cellules KB [2]) | Cytotoxicité (cellules KB [3]) | inhibition (I%) ([1]; DI = 20 µg.ml)
CCCCCCCCCC(O)CC1CCC(C2CCC(C(O)CCCC(O)CCCCCCC(O)CCC3=CC(C)OC3=O)O2)O1 (stereo not shown) [Ex 1, 2-[5-(2-hydroxyundécyl)-2-tétrahydrofurannyl]-5-[14-(5-méthyl-2-oxo-2,5-dihydro-3-furannyl)-1,5,12-trihydroxytétradécyl]-tétrahydrofuranne] | 100% | 2,5 µg.ml | 10 µg·mL | 20*** µg.ml | 40 µg·mL | –
CCCCCCCCCC(O)CC1CCC(C2CCC(C(O)CCCCCCCCCCC(O)CCC3=CC(C)OC3=O)O2)O1 (stereo not shown) [Ex 8, 2-[5-(2-hydroxyundécyl)-2-tétrahydrofurannyl]-5-[14-(5-méthyl-2-oxo-2,5-dihydro-3-furannyl)-1,12-dihydroxytétradécyl]-tétrahydrofuranne] | – | >20 µg·mL | 20 µg·mL | 20** µg.ml | 40 µg·mL | 11%
